The subject of one test is Nucleic Acid. Nature of the test: The compound was evaluated for binding affinity towards calf thymus DNA. The class given is nucleic-acid assay. The conditions noted are these: Bos taurus.
Test [1] has as its system J774.A1. The test is described as follows: Inhibition of TNF-alpha production by J774.A1 cells stimulated for 18 hr with Escherichia coli at 0.9 uM, by ELISA assay; effectively inhibited. The class given is functional, cell-based. As to conditions: Mus musculus. For orientation: In an ELISA, binding on a coated surface is turned into a signal by an enzyme label.
The test system of test [2] is J774.A1. Nature of the test: Inhibition of NO production by J774.A1 cells stimulated for 18 hr with Escherichia coli at 0.5 uM, measured as nitrite using the Griess assay; effectively inhibited. The class given is functional, cell-based. As to conditions: Mus musculus. A general note: Nitrite, measured by Griess reagent, commonly stands in for NO production.

In turn, `CCCCCCCC/C=C/CCCCCCCC(=O)NCCCNCCCCNCCCN` registered a C50 in the test with Nucleic Acid of 1.29 µM.
Still for that read-out and setting: the value for `CCCCCCCCCCCCCCCCCC(=O)NCCCNCCCCNCCCN` was 1.27 µM; that for `CCCCCCCCCCCCCCCC(=O)NCCCNCCCCNCCCN` was 1.35 µM.
`CCCCCCCCCCCCCCCC(=O)NCCCNCCCNCCCCNCCCN`: the inhibition result with J774.A1 [1] and in the test with J774.A1 [2] was “effectively inhibited” in each case. The molecule also returned a C50 with Nucleic Acid of 0.9 µM.
